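Interpolation was linear, between the two tested concentrations surrounding the appropriate level; five concentrations were tested over 48 hours in 96-well plates. At the GI50, growth is halved.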 The source made the active and inactive calls. No stated cut-off is given here; in the data, active = GI50 up to about 1.1 µM and inactive = higher.
Experiments:
Test in all cases: inhibition of tumour cell growth, NCI panel, 48 h
SNB-75 = tested on: SNB-75
OVCAR-8 = tested on: OVCAR-8
NCI-H23 = tested on: NCI-H23
K562 = tested on: K562
UACC-257 = tested on: UACC-257
ACHN = tested on: ACHN
OVCAR-4 = tested on: OVCAR-4
UACC-62 = tested on: UACC-62
SW-620 = tested on: SW-620
UO-31 = tested on: UO-31
SN12C = tested on: SN12C
NCI-H522 = tested on: NCI-H522
SK-MEL-5 = tested on: SK-MEL-5
KM12 = tested on: KM12
SF-539 = tested on: SF-539
NCI/ADR-RES = tested on: NCI/ADR-RES
PC-3 = tested on: PC-3
HOP-92 = tested on: HOP-92
MDA-N = tested on: MDA-N
SK-MEL-2 = tested on: SK-MEL-2

Measured: GI50

COC(=O)[C@@H]1COC(=O)N1
inactive: SNB-75 > 100 µM | OVCAR-8 > 100 µM | NCI-H23 > 100 µM | K562 > 100 µM | UACC-257 > 100 µM | ACHN > 100 µM | OVCAR-4 > 100 µM | UACC-62 > 100 µM | SW-620 > 100 µM | UO-31 > 100 µM | SN12C > 100 µM | NCI-H522 > 100 µM | SK-MEL-5 > 100 µM | KM12 > 100 µM | SF-539 > 100 µM | NCI/ADR-RES > 100 µM | PC-3 > 100 µM | HOP-92 > 100 µM | MDA-N > 100 µM | SK-MEL-2 > 100 µM

O=C(c1cccs1)N(C(=S)OC12CC3CC(CC(C3)C1)C2)c1ccccc1
inactive: SNB-75 85.7 µM | OVCAR-8 31.8 µM | NCI-H23 30.2 µM | K562 26.8 µM | UACC-257 39.5 µM | ACHN 33 µM | OVCAR-4 35 µM | UACC-62 25.6 µM | SW-620 40.7 µM | UO-31 18.7 µM | SN12C 27 µM | NCI-H522 17.2 µM | SK-MEL-5 22.1 µM | KM12 31.9 µM | SF-539 34.5 µM | NCI/ADR-RES 29.6 µM | PC-3 22.8 µM | HOP-92 24.8 µM | MDA-N 31.4 µM | SK-MEL-2 18.2 µM

Cc1cc2occ(S(=O)(=O)NC(=O)Nc3ccc(Cl)cc3)c(=O)c2c(=O)o1
inactive: SNB-75 > 100 µM | OVCAR-8 > 100 µM | NCI-H23 > 100 µM | K562 > 100 µM | UACC-257 > 100 µM | ACHN 40.2 µM | OVCAR-4 > 100 µM | UACC-62 23.4 µM | SW-620 > 100 µM | UO-31 > 100 µM | SN12C > 100 µM | NCI-H522 > 100 µM | SK-MEL-5 > 100 µM | KM12 > 100 µM | SF-539 > 100 µM | NCI/ADR-RES > 100 µM | PC-3 > 100 µM | HOP-92 > 100 µM | MDA-N > 100 µM | SK-MEL-2 > 100 µM

COC12C(COC(=O)NCCO)C3=C(C(=O)C(C)=C(N)C3=O)N1CC1NC12 (stereo not given)
inactive: SNB-75 17.4 µM | OVCAR-8 38.3 µM | NCI-H23 4.94 µM | K562 103 µM | UACC-257 69.7 µM | ACHN 6.59 µM | OVCAR-4 65.8 µM | UACC-62 8.11 µM | SW-620 16.7 µM | UO-31 > 100 µM | SN12C 7.94 µM | NCI-H522 14.5 µM | SK-MEL-5 14.2 µM | KM12 69.3 µM | SF-539 7.83 µM | NCI/ADR-RES > 264 µM | PC-3 35.2 µM | HOP-92 30 µM | MDA-N 86.1 µM | SK-MEL-2 30.9 µM
